Source: ChEMBL document CHEMBL1201862, “PubChem BioAssay data set” (2004)
Active and inactive are the calls of the source.

Assays:
[1] = target: Tyrosine-protein phosphatase non-receptor type 7 (Homo sapiens, UniProt P35236); type: functional
[2] = target: T1, Calpain-2 catalytic subunit (Sus scrofa, UniProt P43367); assay: m-calpain protease blockers, concentration series – biochemical, fluorogenic peptide substrate, dose response (AID 1420); type: functional
T1 sequence (P43367 whole entry): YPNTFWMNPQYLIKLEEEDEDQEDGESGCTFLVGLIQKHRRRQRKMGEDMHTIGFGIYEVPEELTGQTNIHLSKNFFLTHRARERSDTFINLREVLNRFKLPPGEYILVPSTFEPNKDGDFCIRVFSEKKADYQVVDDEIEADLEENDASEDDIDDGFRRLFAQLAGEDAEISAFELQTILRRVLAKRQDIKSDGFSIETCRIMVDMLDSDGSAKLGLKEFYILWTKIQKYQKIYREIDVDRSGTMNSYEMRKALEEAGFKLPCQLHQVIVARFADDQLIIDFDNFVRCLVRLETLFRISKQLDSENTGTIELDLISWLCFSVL

[3] = target: T2, Tyrosine-protein phosphatase non-receptor type 22 (Homo sapiens, UniProt Q9Y2R2); type: functional
[4] = target: T2, Tyrosine-protein phosphatase non-receptor type 22; type: functional; remark: listed apart in the source
[5] = Luminescence Cell-Based Dose Response HTS to Identify Inhibitors of Luciferase Translation or Activity in H4-C Neuroglioblastoma Cells. [Related pubchem assays: 1813 (Primary HTS), 1827 (Project Summary)]; type: functional
[6] = Luminescence Cell-Based Dose Response HTS to Identify Activators of Luciferase Translation or Activity in H4-C Neuroglioblastoma Cells. [Related pubchem assays: 1829 (Project Summary), 1814 (Primary HTS)]; type: functional
[7] = Luminescence Cell-Based Dose Response HTS to Identify Activators of 5'UTR Stem-Loop Driven Prion Protein mRNA Translation in H4-C Neuroglioblastoma Cells. [Related pubchem assays: 1829 (Project Summary), 1814 (Primary HTS)]; type: functional
[8] = Luminescence Cell-Based Dose HTS Response to Identify Inhibitors of 5'UTR Stem-Loop Driven Prion Protein mRNA Translation in H4-C Neuroglioblastoma Cells. [Related pubchem assays (depositor defined):AID1814, AID1827]; type: functional
BJ [9] = assay: BJ-TERT fibroblast viability loss – cell-based, RAS-independent, luminescence, dose response (AID 1933); type: functional; details: Homo sapiens
[10] = Luminescence Cell-Based Dose Response HTS to Identify Inhibitors of 5'UTR Stem-Loop Driven Prion Protein mRNA Translation in H4 Neuroglioblastoma Cells. [Related pubchem assays: 1827 (Project Summary), 1813 (Primary HTS)]; type: functional
[11] = alpha-synuclein stem-loop luciferase translation blockers – H4 neuroglioma cells, luminescence, confirmation (AID 1988); type: functional, cell-based
BJ [12] = assay: cells; type: functional, cell-based; details: Homo sapiens
[13] = Luminescence Cell-Based Dose Confirmation HTS to Identify Inhibitors of 5'UTR Stem-Loop Driven Alpha-Synuclein mRNA Translation in H4 Neuroglioblastoma Cells. [Related pubchem assays: 1827 (Project Summary), 1813 (Primary HTS)]; type: functional
BJ [14] = assay: BJ-TERT-LT-ST fibroblast viability loss – cell-based, RAS-independent, luminescence, dose response (AID 1935); type: functional; details: Homo sapiens;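 also: BJ fibroblasts immortalized with TERT plus LT and ST oncogenes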
[15] = DRD fibroblast viability loss – cell-based, non-viral oncogenic, luminescence, dose response (AID 1934); type: functional; details: Homo sapiens
BJ [16] = assay: growth inhibition of engineered Ras-driven BJ cells – cell-based, alamar blue fluorescence, cherrypicked samples, dose response (AID 2631); type: functional; details: Homo sapiens;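 also: confirmatory dose-response assay in RAS-dependent BJ fibroblasts engineered with TERT, LT and ST, with cytotoxicity read by fluorescence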
cells = type: functional, cell-based
[17] = target: T3, Nuclear receptor subfamily 0 group B member 1 (Homo sapiens, UniProt P51843); type: functional, cell-based;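 also: HEK293T cells transfected with SF-1 and DAX-1 plus StAR promoter luciferase reporter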
T3 sequence (P51843 whole entry): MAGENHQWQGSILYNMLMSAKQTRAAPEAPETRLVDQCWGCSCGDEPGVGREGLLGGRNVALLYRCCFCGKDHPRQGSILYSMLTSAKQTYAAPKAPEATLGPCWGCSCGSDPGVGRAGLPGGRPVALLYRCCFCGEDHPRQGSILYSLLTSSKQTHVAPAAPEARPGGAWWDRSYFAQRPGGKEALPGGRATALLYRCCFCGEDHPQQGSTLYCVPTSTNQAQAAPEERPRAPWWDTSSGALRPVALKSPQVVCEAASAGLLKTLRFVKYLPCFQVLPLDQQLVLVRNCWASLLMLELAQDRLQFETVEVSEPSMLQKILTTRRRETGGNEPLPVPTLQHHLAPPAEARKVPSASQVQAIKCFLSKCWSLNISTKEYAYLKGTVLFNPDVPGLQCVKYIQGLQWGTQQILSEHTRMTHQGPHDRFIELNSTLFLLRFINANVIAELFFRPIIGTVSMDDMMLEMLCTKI

[18] = target: T4, G-protein coupled receptor 55 (Homo sapiens, UniProt Q9Y2T6); assay: inhibition of LPI-stimulated GPR55 beta-arrestin translocation – imaging, U2OS, beta-arrestin-GFP, LPI agonist, primary screen (AID 2013); type: functional;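 also: antagonist potency measured as reduced agonist-driven arrestin aggregation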
Mucolipin-3 = Mucolipin-3 (Homo sapiens, UniProt Q8TDD5); assay: Dose response cell-based high-throughput screening assay for agonists of the transient receptor potential channel ML3 (TRPML3). [Related pubchem assays: 1526, 1424, 1448 ]; type: functional
Ion channel NompC = Ion channel NompC (Danio rerio, UniProt Q7T1G6); assay: Fluorescence counterscreen assay for TRPML3 agonists: dose response cell-based high-throughput screening assay to identify agonists of the transient receptor potential channel N1 (TRPN1). [Related pubchem assays: 1526, 1424, 1448 ]; type: functional
Cannabinoid receptor 1 [19] = target: T5, Cannabinoid receptor 1 (Homo sapiens, UniProt P21554); assay: SAR analysis of antagonists of the Cannabinoid Receptor 1 using an Image-Based Assay - Set 2. [Related pubchem assays (depositor defined):AID2013, AID2026]; type: functional
[20] = target: T6, G-protein coupled receptor 35 (Homo sapiens, UniProt Q9HC97); assay: SAR analysis of Agonists of the GPR35 Receptor using an Image-Based Assay - Set 2. [Related pubchem assays (depositor defined):AID2013, AID2026]; type: functional
Cannabinoid receptor 2 [21] = target: T7, Cannabinoid receptor 2 (Homo sapiens, UniProt P34972); assay: SAR analysis of antagonists of the Cannabinoid Receptor 2 using an Image-Based Assay. [Related pubchem assays (depositor defined):AID2013, AID2026]; type: functional
Cannabinoid receptor 1 [22] = target: T5, Cannabinoid receptor 1; assay: SAR analysis of agonists of the Cannabinoid Receptor 1 using an Image-Based Assay - Set 2. [Related pubchem assays (depositor defined):AID2013, AID2026]; type: functional
[23] = target: T6, G-protein coupled receptor 35; assay: SAR analysis of Antagonists of the GPR35 Receptor using an Image-Based Assay - Set 3. [Related pubchem assays (depositor defined):AID2013, AID2026]; type: functional
[24] = target: T4, G-protein coupled receptor 55; assay: blockade of LPI-induced GPR55 arrestin translocation – imaging, U2OS, beta-arrestin-GFP, LPI agonist, set 2, SAR follow-up (AID 2820); type: functional
Cannabinoid receptor 2 [25] = target: T7, Cannabinoid receptor 2; assay: SAR analysis of agonists of the Cannabinoid Receptor 2 using an Image-Based Assay. [Related pubchem assays (depositor defined):AID2013, AID2026]; type: functional

T2 sequence (Q9Y2R2 whole entry): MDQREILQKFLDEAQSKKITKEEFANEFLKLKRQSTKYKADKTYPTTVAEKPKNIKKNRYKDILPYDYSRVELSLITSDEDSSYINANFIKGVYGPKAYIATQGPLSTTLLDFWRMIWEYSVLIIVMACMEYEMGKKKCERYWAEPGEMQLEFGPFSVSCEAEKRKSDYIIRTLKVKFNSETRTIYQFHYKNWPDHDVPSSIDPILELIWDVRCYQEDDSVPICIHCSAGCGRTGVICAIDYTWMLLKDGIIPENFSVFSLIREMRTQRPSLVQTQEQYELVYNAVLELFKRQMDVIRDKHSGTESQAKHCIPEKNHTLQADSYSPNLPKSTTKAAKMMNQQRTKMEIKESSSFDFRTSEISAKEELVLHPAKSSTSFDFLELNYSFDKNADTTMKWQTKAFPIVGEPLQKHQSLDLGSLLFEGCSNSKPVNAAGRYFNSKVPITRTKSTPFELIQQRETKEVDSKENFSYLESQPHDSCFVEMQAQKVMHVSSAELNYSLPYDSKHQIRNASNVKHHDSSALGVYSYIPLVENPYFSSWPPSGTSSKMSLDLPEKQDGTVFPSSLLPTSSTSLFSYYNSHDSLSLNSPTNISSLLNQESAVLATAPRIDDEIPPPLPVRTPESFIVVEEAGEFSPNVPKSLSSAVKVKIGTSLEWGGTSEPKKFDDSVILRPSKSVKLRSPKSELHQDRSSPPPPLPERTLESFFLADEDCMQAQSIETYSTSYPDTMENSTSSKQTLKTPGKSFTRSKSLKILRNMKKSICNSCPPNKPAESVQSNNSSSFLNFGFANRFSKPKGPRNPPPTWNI
T4 sequence (Q9Y2T6 whole entry): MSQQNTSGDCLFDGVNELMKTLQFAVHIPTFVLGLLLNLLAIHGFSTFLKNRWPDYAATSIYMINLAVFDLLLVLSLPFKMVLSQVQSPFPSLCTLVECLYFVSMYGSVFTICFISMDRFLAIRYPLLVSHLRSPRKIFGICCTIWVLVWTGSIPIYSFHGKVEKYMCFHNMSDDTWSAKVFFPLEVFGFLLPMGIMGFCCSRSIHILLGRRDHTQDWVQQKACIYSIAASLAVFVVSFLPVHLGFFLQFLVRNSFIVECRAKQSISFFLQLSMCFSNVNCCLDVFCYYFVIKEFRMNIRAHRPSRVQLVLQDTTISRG
T5 sequence (P21554 whole entry): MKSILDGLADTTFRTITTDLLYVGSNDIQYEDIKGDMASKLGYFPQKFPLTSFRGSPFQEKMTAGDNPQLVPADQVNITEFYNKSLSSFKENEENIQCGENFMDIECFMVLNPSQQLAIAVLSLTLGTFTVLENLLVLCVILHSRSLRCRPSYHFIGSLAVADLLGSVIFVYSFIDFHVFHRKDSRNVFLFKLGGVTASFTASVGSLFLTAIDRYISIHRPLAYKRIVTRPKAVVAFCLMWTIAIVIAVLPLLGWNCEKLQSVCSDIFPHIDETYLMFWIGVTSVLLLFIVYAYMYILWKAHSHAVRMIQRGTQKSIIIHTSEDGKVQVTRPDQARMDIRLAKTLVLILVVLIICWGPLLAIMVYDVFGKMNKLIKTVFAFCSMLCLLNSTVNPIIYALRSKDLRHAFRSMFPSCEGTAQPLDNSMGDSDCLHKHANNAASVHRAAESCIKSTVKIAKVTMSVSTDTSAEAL
T7 sequence (P34972 whole entry): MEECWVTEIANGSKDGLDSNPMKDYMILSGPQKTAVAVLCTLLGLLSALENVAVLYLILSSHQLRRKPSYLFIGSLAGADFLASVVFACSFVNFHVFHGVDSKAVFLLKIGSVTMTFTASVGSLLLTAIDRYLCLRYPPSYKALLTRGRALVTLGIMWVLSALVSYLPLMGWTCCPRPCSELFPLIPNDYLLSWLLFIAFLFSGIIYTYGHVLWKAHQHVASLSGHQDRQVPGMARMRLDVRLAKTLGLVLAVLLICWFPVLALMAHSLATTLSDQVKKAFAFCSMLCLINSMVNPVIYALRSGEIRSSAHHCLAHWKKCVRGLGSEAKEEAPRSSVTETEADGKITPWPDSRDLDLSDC
T6 sequence (Q9HC97 whole entry): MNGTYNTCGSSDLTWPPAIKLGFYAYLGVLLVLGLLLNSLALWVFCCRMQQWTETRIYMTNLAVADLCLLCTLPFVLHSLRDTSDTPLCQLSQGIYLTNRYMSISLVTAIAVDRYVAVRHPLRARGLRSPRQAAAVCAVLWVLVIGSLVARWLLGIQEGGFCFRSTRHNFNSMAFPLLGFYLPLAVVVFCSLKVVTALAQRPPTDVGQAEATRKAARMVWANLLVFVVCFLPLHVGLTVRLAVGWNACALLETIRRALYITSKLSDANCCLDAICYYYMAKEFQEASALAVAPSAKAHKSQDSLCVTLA
Mucolipin-3, sequence (Q8TDD5 whole entry): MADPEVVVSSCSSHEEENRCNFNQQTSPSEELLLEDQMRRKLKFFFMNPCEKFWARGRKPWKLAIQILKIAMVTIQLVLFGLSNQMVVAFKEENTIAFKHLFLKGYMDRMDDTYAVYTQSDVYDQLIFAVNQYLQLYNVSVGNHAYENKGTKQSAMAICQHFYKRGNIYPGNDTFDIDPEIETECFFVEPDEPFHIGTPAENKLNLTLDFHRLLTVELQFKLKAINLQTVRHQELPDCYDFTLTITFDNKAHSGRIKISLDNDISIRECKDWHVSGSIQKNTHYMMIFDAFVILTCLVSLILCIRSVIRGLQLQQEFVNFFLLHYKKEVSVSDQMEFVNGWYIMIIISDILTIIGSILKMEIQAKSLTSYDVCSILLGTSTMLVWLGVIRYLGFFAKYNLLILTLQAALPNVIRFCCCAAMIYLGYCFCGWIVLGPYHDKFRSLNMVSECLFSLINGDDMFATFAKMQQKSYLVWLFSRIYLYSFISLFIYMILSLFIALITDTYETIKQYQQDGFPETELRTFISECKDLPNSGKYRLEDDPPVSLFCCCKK
Tyrosine-protein phosphatase non-receptor type 7, sequence (P35236 whole entry): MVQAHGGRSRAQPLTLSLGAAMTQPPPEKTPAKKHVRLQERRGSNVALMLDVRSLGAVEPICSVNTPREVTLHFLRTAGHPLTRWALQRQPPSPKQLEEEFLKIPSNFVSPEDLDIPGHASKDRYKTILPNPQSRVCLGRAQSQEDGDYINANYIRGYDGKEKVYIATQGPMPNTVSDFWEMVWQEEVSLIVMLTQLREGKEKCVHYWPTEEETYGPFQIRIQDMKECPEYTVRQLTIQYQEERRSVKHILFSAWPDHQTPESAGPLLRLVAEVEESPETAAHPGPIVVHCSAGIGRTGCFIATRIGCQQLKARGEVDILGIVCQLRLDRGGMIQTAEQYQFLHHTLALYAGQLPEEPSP
Ion channel NompC, sequence (Q7T1G6 whole entry): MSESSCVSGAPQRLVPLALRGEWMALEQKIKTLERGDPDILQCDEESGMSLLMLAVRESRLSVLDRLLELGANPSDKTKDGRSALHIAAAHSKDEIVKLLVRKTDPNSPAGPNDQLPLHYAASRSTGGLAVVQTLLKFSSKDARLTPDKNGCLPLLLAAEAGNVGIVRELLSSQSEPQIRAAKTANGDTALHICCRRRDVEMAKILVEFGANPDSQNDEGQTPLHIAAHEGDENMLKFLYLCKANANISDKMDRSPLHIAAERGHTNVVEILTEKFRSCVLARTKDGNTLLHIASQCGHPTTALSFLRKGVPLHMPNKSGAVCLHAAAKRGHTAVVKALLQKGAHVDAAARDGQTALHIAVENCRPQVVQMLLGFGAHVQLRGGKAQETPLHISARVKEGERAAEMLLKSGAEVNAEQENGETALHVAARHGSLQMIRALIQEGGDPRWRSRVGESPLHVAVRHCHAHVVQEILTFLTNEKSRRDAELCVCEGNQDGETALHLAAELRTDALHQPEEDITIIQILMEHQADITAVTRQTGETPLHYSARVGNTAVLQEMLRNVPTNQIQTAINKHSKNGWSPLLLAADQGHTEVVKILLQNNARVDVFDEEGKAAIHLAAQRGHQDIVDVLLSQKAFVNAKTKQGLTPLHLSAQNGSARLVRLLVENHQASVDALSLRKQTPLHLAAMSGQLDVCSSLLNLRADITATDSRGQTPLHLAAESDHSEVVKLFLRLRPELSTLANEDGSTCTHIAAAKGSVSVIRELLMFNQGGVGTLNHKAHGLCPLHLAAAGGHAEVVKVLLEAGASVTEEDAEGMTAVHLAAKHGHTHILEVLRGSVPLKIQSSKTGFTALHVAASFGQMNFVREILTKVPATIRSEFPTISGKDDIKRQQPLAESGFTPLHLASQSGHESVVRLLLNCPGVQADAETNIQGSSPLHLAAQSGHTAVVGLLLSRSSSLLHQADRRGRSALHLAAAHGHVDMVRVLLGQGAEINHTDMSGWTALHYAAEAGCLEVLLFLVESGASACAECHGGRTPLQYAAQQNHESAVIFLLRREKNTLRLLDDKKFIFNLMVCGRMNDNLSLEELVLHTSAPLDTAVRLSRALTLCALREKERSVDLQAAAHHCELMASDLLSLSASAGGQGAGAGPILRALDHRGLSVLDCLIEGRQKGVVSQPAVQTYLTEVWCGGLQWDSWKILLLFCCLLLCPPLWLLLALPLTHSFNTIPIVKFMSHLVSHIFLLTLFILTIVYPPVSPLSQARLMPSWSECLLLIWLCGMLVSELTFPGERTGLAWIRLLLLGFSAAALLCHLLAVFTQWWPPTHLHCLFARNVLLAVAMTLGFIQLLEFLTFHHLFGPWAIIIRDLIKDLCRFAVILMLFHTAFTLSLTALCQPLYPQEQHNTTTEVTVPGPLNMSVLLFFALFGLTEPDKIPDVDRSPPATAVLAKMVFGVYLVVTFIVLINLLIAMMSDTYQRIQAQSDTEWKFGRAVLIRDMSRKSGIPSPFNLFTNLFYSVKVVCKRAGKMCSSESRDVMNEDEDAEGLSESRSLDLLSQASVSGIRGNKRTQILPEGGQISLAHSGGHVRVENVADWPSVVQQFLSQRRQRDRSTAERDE

Question: For `O=C(Nc1ccc(Cl)cc1)c1ccc(OC2CSC2)cc1`, which IC50 [1] is on record?
Answer: > 79.4 µM (inactive)

Question: And the IC50 [2]?
Answer: 16.7 µM (not active)

Question: What about the IC50 [3] of the same molecule?
Answer: > 79.4 µM (inactive)

Question: And the IC50 [4]?
Answer: > 79.4 µM (inactive)

Question: Which EC50 [5] does the source give for `CCc1ccc(CNC(=O)Cc2ccc(NC(=O)C3=C(C)OCCS3)cc2)cc1` here?
Answer: 51.1 µM (active)

Question: And the EC50 [6]?
Answer: 51.1 µM (inconclusive)

Question: What about the EC50 [7] of the same molecule?
Answer: 0.592 µM (inconclusive)

Question: What about the EC50 [8] of the same molecule?
Answer: 0.592 µM (active)

Question: What about the EC50 (BJ [9]) of the same molecule?
Answer: 7.66 µM (inconclusive)

Question: What about the EC50 [10] of the same molecule?
Answer: 104 µM (active)

Question: What about the EC50 [11] of the same molecule?
Answer: 0.899 µM (active)

Question: And the EC50 (BJ [12])?
Answer: 23.3 µM (active)

Question: And the EC50 [13]?
Answer: > 195 µM (not active)

Question: And the EC50 (BJ [14])?
Answer: 3.01 µM (active)

Question: What about the EC50 [15] of the same molecule?
Answer: 10.7 µM (inconclusive)

Question: What about the EC50 (BJ [16]) of the same molecule?
Answer: 0.379 µM (active)

Question: What about the IC50 (cells) of the same molecule?
Answer: > 67.5 µM (inactive)

Question: What about the IC50 [17] of the same molecule?
Answer: > 67.5 µM (inactive)

Question: What does the source list for `COc1ccc(S(=O)(=O)Nc2ccc(C)cc2)cc1N(C)S(=O)(=O)c1ccc(Cl)cc1`?
Answer: IC50 [18]: 1.8 µM (active); EC50 (Mucolipin-3): 6.67 µM (active); EC50 (Ion channel NompC): > 29.9 µM (not active); IC50 (Cannabinoid receptor 1 [19]): 5.95 µM (active); EC50 [20]: > 32 µM (inactive); IC50 (Cannabinoid receptor 2 [21]): > 32 µM (inactive); EC50 (Cannabinoid receptor 1 [22]): > 32 µM (inactive); IC50 [23]: > 32 µM (inactive); IC50 [24]: 0.992 µM (active); EC50 (Cannabinoid receptor 2 [25]): > 32 µM (inactive)
